# Laboratory results reported in EPA's aquatic toxicity sets.
# Test system: Tetrahymena pyriformis
# Experiment: 48 h IGC50 (-log10 mol/L); higher = more toxic
row,Structure (SMILES),48 h IGC50 (-log10 mol/L)
1,O=C(c1ccccc1)c1ccccc1O,4.23
2,N#CSCc1ccccc1,4.05
3,CCCNC,2.19
4,Cc1cc(O)c([N+](=O)[O-])cc1Cl,4.63
5,CCCC(C)N (centres undefined),2.31
6,CCOC(=O)CCC(=O)CCC(=O)OCC,2.36
7,O=[N+]([O-])c1ccc(/C=N/O)cc1,3.68
8,Cc1ccnc(Cl)c1[N+](=O)[O-],3.29
9,CCCCCCC(O)CCC (centres undefined),3.85
10,O=[N+]([O-])c1ccc(Nc2ccccc2)cc1,4.89
11,O=C(NO)c1ccccc1,3.38
12,OCc1cccc(O)c1,1.98
13,Brc1ccsc1,2.96
14,c1cnccn1,1.18
15,NCCCCc1ccccc1,3.62
16,CCCC#CCC(O)CC (centres undefined),2.96
17,C=CCC(=O)O,2.36
18,Cc1ccc(O)c([N+](=O)[O-])n1,3.39
19,O=[N+]([O-])c1cc(Cl)c(Cl)c(Cl)c1Cl,4.78
20,c1ccc(Cc2cccnc2)cc1,3.68
21,CCCCCCC#CC(=O)O,3.71
22,Oc1ccccc1Br,3.33
23,N#Cc1ccccc1C(N)=O,2.68
24,CC(C)N,2.14

row,Structure (SMILES),48 h IGC50 (-log10 mol/L)
1,Cc1cccc(C#N)c1,2.75
2,CCC(O)CC,1.76
3,N#Cc1ccccc1[N+](=O)[O-],4.08
4,COc1ccc(C(=O)c2ccccc2)c(O)c1,4.42
5,CCc1cccc(N)c1,2.97
6,O=[N+]([O-])c1cccc2cccnc12,3.08
7,COC(=O)CCBr,4.03
8,O=[N+]([O-])c1cc(Br)ccc1Br,4.37
9,Oc1c(F)c(F)cc(F)c1F,4.17
10,COc1cccc(Cl)c1,3.29
11,N#CCc1ccc(Br)cc1,3.6
12,c1ccc2c(c1)ccc1cccnc12,4.31
13,Nc1cc(F)c([N+](=O)[O-])cc1[N+](=O)[O-],4.69
14,CCOC(=O)CCCBr,2.97
15,CCCCC(=O)OC,2.15
16,CC(C)(O)C#CC(C)(C)O,1.42
17,Nc1c([N+](=O)[O-])ccc2ncccc12,3.92
18,O=C(c1ccc(O)cc1O)c1ccc(O)cc1O,3.96
19,O=[N+]([O-])c1ccccc1-c1ccccc1,4.3
20,C=C(C)C(=O)OCC,2.07
21,CC(Cl)C(N)=O (centres undefined),1.56
22,CC(C)(C)OC(=O)CCl,3.85
23,CCOC(=O)CCCC(=O)CC(=O)OCC,2.62
24,CCOC(=O)C[C@H](C)O,1.47

row,Structure (SMILES),48 h IGC50 (-log10 mol/L)
1,COc1cc(C(C)=O)ccc1O,2.88
2,O=[N+]([O-])c1cc(Cl)ccc1Cl,4.13
3,CCCCCCCCCO,3.85
4,O=C1C=CCC1,3.64
5,CCc1cccs1,2.57
6,Clc1cccc(Br)c1Cl,4.3
7,O=[N+]([O-])c1cc(C(F)(F)F)ccc1Cl,3.85
8,O=Cc1cccc2ccccc12,3.42
9,CCOC(=O)C(Br)C(C)C (centres undefined),3.02
10,CCOC(=O)CCl,4.06
11,O=C(O)CCCl,2.67
12,CCc1cccc(O)c1,3.29
13,CC#CC(=O)OCC,3.51
14,CC(O)Cc1ccccc1 (centres undefined),2.38
15,O=Cc1cc(Cl)cc(Cl)c1Cl,4.72
16,Nc1cc([N+](=O)[O-])cc(Cl)c1O,4.2
17,CCCCCCCCCCC(C)O (centres undefined),4.66
18,Nc1ccc([N+](=O)[O-])cn1,3.22
19,NC(=O)c1cccs1,2.03
20,Oc1cccc(Br)c1,4.15
21,CCCC/C=C/CO,3.04
22,CCCNCCO,1.32
23,CC(=O)c1ccc(O)c(C(N)=O)c1,2.9
24,CCCC(C)C=O (centres undefined),2.53

row,Structure (SMILES),48 h IGC50 (-log10 mol/L)
1,CC(C)c1cccc(O)c1,3.61
2,Oc1c(Br)cc(Br)c(O)c1Br,4.06
3,C#CC(C)=O,4.96
4,c1ccc(Cc2ccccn2)cc1,3.38
5,Oc1cc(O)cc(O)c1,1.74
6,O=C1C=CC(=O)c2ccccc21,5
7,O/N=C\c1ccccc1,2.89
8,ClCCCc1ccccc1,3.5
9,CCCCCCCC=CCO,4.13
10,CCCCCCC#N,2.76
11,S=C=NC(c1ccccc1)c1ccccc1,6.05
12,C=CCC(C(=O)OCC)C(=O)OCC,2.94
13,CCCCCC#CC(=O)OCC,4.24
14,CCOC(=O)CI,5.92
15,CC1CCC(=O)O1 (centres undefined),1.43
16,CCOC(=O)c1ccc(OC)cc1,3.77
17,C=CCSc1ccccc1,3.69
18,OCC(Br)(Br)Br,3.11
19,Cc1ccc2ccccc2n1,3.47
20,CCCCCCOC(=O)c1ccccc1,4.94
21,Nc1c(Cl)cc(Cl)cc1[N+](=O)[O-],4.26
22,Oc1ccc(-c2ccc(Br)cc2)cc1,5.31
23,C=CC(C)O (centres undefined),1.95
24,Cc1ccc(O)cc1[N+](=O)[O-],3.74

row,Structure (SMILES),48 h IGC50 (-log10 mol/L)
1,OC(CCl)CCl,2.21
2,OCCc1ccccc1,2.41
3,CCCCCCCC(C)O (centres undefined),3.62
4,Nc1cc(Cl)c([N+](=O)[O-])cc1O,4.17
5,CCCC(CCC)C(=O)O,3.03
6,CC#CCOC(C)=O,2.12
7,CCCC(Br)C(=O)O (centres undefined),2.96
8,OCCCCCl,2.24
9,O=[N+]([O-])c1cc(Cl)cc(Cl)c1O,4.75
10,CC(=O)c1ccc(O)cc1O,3.25
11,Cc1c(N)cccc1O,2.45
12,C=CCc1ccccc1,3.19
13,CC#CC(C)(O)CCC (centres undefined),2.52
14,C/C=C/C(=O)CCCC,4.01
15,CCCCOc1ccc(C=O)cc1,3.72
16,CN(C)c1ccc(C=O)cc1,3.23
17,COCC(C)N (centres undefined),2.17
18,CC(=O)c1ccc(O)cc1C,3.19
19,CC(C)C(C)O (centres undefined),2
20,CCOC(=O)CCCl,2.5
21,CC(C)(C)c1ccc(Br)cc1,3.75
22,OCc1ccccc1F,2.33
23,O=C(O)c1cc(Cl)ccc1Cl,2.54
24,CCCCS(=O)CCCC,2.74

row,Structure (SMILES),48 h IGC50 (-log10 mol/L)
1,CCOC(=O)C(NC(C)=O)C(=O)OCC,1.8
2,O=[N+]([O-])c1cc(Br)cc(F)c1O,4.62
3,O=[N+]([O-])c1c(Cl)ncnc1Cl,5.12
4,CC(C)c1ccc(N)cc1,3.22
5,CCCCCCCCC(=O)O,3.35
6,CCC(C)(C)N,2.3
7,O=[N+]([O-])c1cccc(Br)c1,4.03
8,C[C@H](N=C=S)c1ccccc1,5.7
9,O=C(Oc1ccccc1)c1ccccc1,4.35
10,Oc1cc(Cl)c(O)cc1Cl,4.81
11,CCCSc1ccccc1,3.86
12,CCS(=O)(=O)CC,1.16
13,Oc1ccc(O)c(-c2ccccc2)c1,5.01
14,CC(C)(Br)[N+](=O)[O-],4.85
15,O=C(O)CCCCCC(=O)O,2.42
16,CCCCCOC=O,2.22
17,Cc1cccc2ccccc12,3.74
18,CN(CCO)CCO,1.17
19,CCCCOC(N)=O,2.03
20,NCc1ccc(Cl)cc1,3.16
21,CCCOC(=O)CCC,2.59
22,CNC(C)=O,1.02
23,Oc1cc(Cl)ccc1Cl,4.13
24,O=Cc1ccsc1,3.4

row,Structure (SMILES),48 h IGC50 (-log10 mol/L)
1,CC/C=C/CBr,3.77
2,O=C/C=C/c1ccco1,3.37
3,CCCOS(=O)OCCC,3.09
4,Cc1ccccc1C#N,2.76
5,C=CC(=O)CCC,4.66
6,C=CCOC(=O)C=CC,2.52
7,COc1ccc(C=O)cc1O,2.86
8,N#CC(=O)c1ccccc1,3.31
9,CC(Br)c1ccccc1 (centres undefined),2.33
10,C=CC(=O)NCNC(=O)C=C,2.48
11,CCCC#CC(=O)OC,3.76
12,O=C/C=C/c1ccccc1,3.68
13,C=C(C)C(=O)OC,1.78
14,N#Cc1ccccc1C#N,2.66
15,OCc1c(F)c(F)c(F)c(F)c1F,2.8
16,O=Cc1ccc(Br)cc1,3.59
17,COc1ccc(Cl)c(Cl)c1Cl,4.64
18,CC(C)(C)c1cc(O)cc(C(C)(C)C)c1,4.64
19,CCOC(=O)c1ccc(F)cc1,3.01
20,Cc1cc(N)ccc1O,4.31
